Where “and” joins values, the source holds several entries; their conditions need not be identical. Equal entries are not always repeated.
Assay: NHP health screening: serum chemistry
Assay type: in vivo, rhesus macaques (Macaca mulatta)
[1] = End of study bleed, Mean of treated F animals
[2] = End of study bleed, individual treated animals
[3] = Mid-dosing bleed, Mean of treated females
[4] = Mid-dosing bleed, treated animals, individual values

Protocol: Under light-anesthesia/sedation, peripheral blood samples were collected from each animal prior to treatment and at 7 time points following. Blood analysis (CBC and serum chemistry assays) and physical exams to evaluate the health of the study animals were performed on each animal prior to the beginning of the study and also at three time points during the treatment protocol (see Supplementary data).

## Cc1c(C(=O)N[C@H](C(=O)OCC2CCOCC2)C(C)C)ccc2c1B(O)OC2 [AN15368]
[1]
  Agap: 15 Meq/L
  Alb: 3.916 G/Dl
  Alp: 92.2632 Iu/L
  Alt: 53.7368 Iu/L
  Ast: 63.5789 Iu/L
  Bun: 17.7895 Mg/Dl
  Ca: 9.232 Mg/Dl
  Chol: 138.105 mg/dL
  Ck: 2260.42 Iu/L
  Cl: 109.526 Meq/L
  Crea: 0.7289 Mg/Dl
  Fe: 111.895 µg/dL
  Ggt: 45 Iu/L
  Glob: 2.684 G/Dl
  Gluc: 62.2105 Mg/Dl
  K: 3.584 Meq/L
  Ldh: 581.684 Iu/L
  Na: 147.474 Meq/L
  Osmo: 284.105 Mosm/Kg
  Phos: 3.284 Mg/Dl
  Tbil: 0.2074 Mg/Dl
  Tco2: 26.6842 Meq/L
  Tibc: 363.263 µg/dL
  Tp: 6.589 G/Dl
  Trig: 78.7895 Mg/Dl
[2]
  Agap: 18 Meq/L and 14 Meq/L and 15 Meq/L and 13 Meq/L and 17 Meq/L and 16 Meq/L
  Alb: 4.2 G/Dl and 3.6 G/Dl and 3.9 G/Dl and 3.5 G/Dl and 4 G/Dl and 3.3 G/Dl and 2.9 G/Dl and 4.4 G/Dl and 3.8 G/Dl and 4.7 G/Dl and 4.3 G/Dl
  Alp: 132 Iu/L and 94 Iu/L and 68 Iu/L and 54 Iu/L and 70 Iu/L and 117 Iu/L and 84 Iu/L and 65 Iu/L and 131 Iu/L and 60 Iu/L and 92 Iu/L and 150 Iu/L and 113 Iu/L and 97 Iu/L and 63 Iu/L and 80 Iu/L and 71 Iu/L and 89 Iu/L and 76 Iu/L
  Alt: 39 Iu/L and 36 Iu/L and 27 Iu/L and 30 Iu/L and 87 Iu/L and 53 Iu/L and 95 Iu/L and 29 Iu/L and 76 Iu/L and 195 Iu/L and 45 Iu/L and 25 Iu/L and 70 Iu/L and 69 Iu/L and 18 Iu/L and 22 Iu/L
  Ast: 34 Iu/L and 33 Iu/L and 18 Iu/L and 23 Iu/L and 28 Iu/L and 35 Iu/L and 32 Iu/L and 29 Iu/L and 21 Iu/L and 199 Iu/L and 392 Iu/L and 24 Iu/L and 25 Iu/L and 203 Iu/L and 16 Iu/L
  Bun: 19 Mg/Dl and 14 Mg/Dl and 15 Mg/Dl and 17 Mg/Dl and 18 Mg/Dl and 16 Mg/Dl and 13 Mg/Dl and 38 Mg/Dl and 29 Mg/Dl and 11 Mg/Dl
  Ca: 9.6 Mg/Dl and 9.1 Mg/Dl and 8.7 Mg/Dl and 9.3 Mg/Dl and 9.5 Mg/Dl and 9.2 Mg/Dl and 8.8 Mg/Dl and 8.5 Mg/Dl and 8.2 Mg/Dl and 9.7 Mg/Dl and 9.4 Mg/Dl and 10.1 Mg/Dl
  Chol: 127 mg/dL and 152 mg/dL and 153 mg/dL and 132 mg/dL and 115 mg/dL and 168 mg/dL and 197 mg/dL and 162 mg/dL and 129 mg/dL and 141 mg/dL and 101 mg/dL and 85 mg/dL and 158 mg/dL and 126 mg/dL and 118 mg/dL and 151 mg/dL and 136 mg/dL and 110 mg/dL
  Ck: 224 Iu/L and 407 Iu/L and 173 Iu/L and 274 Iu/L and 432 Iu/L and 485 Iu/L and 1737 Iu/L and 198 Iu/L and 506 Iu/L and 146 Iu/L and 14833 Iu/L and 15016 Iu/L and 403 Iu/L and 468 Iu/L and 205 Iu/L and 374 Iu/L and 6914 Iu/L and 290 Iu/L and 124 Iu/L and 171 Iu/L
  Cl: 111 Meq/L and 110 Meq/L and 109 Meq/L and 107 Meq/L and 104 Meq/L and 108 Meq/L and 112 Meq/L
  Crea: 0.7 Mg/Dl and 0.59 Mg/Dl and 0.62 Mg/Dl and 0.68 Mg/Dl and 0.76 Mg/Dl and 0.63 Mg/Dl and 0.77 Mg/Dl and 0.78 Mg/Dl and 0.71 Mg/Dl and 0.75 Mg/Dl and 1.07 Mg/Dl and 0.83 Mg/Dl and 0.58 Mg/Dl and 0.57 Mg/Dl and 0.74 Mg/Dl and 0.85 Mg/Dl and 0.66 Mg/Dl
  Fe: 161 µg/dL and 147 µg/dL and 112 µg/dL and 151 µg/dL and 121 µg/dL and 108 µg/dL and 127 µg/dL and 95 µg/dL and 137 µg/dL and 110 µg/dL and 23 µg/dL and 34 µg/dL and 87 µg/dL and 133 µg/dL and 143 µg/dL and 32 µg/dL and 183 µg/dL and 103 µg/dL and 93 µg/dL
  Ggt: 49 Iu/L and 44 Iu/L and 32 Iu/L and 38 Iu/L and 45 Iu/L and 53 Iu/L and 43 Iu/L and 48 Iu/L and 60 Iu/L and 51 Iu/L and 47 Iu/L and 30 Iu/L and 41 Iu/L and 67 Iu/L
  Glob: 2.4 G/Dl and 3.1 G/Dl and 2.5 G/Dl and 2.6 G/Dl and 2.8 G/Dl and 2.9 G/Dl and 2.7 G/Dl and 3.3 G/Dl and 3.2 G/Dl and 2.3 G/Dl and 2.2 G/Dl
  Gluc: 77 Mg/Dl and 54 Mg/Dl and 69 Mg/Dl and 48 Mg/Dl and 57 Mg/Dl and 50 Mg/Dl and 62 Mg/Dl and 56 Mg/Dl and 65 Mg/Dl and 75 Mg/Dl and 83 Mg/Dl and 64 Mg/Dl and 58 Mg/Dl and 73 Mg/Dl and 55 Mg/Dl and 63 Mg/Dl
  K: 3.5 Meq/L and 4 Meq/L and 3.4 Meq/L and 3.3 Meq/L and 3.6 Meq/L and 3.7 Meq/L and 3.9 Meq/L and 2.9 Meq/L and 3.8 Meq/L and 4.1 Meq/L
  Ldh: 508 Iu/L and 636 Iu/L and 140 Iu/L and 492 Iu/L and 348 Iu/L and 387 Iu/L and 493 Iu/L and 399 Iu/L and 281 Iu/L and 157 Iu/L and 1914 Iu/L and 2200 Iu/L and 274 Iu/L and 247 Iu/L and 194 Iu/L and 1688 Iu/L and 241 Iu/L and 292 Iu/L and 122 Iu/L
  Na: 148 Meq/L and 145 Meq/L and 149 Meq/L and 146 Meq/L and 147 Meq/L
  Osmo: 286 Mosm/Kg and 278 Mosm/Kg and 284 Mosm/Kg and 285 Mosm/Kg and 280 Mosm/Kg and 291 Mosm/Kg and 283 Mosm/Kg and 282 Mosm/Kg
  Phos: 3.1 Mg/Dl and 3.5 Mg/Dl and 3.7 Mg/Dl and 2.5 Mg/Dl and 4.3 Mg/Dl and 4.5 Mg/Dl and 4.2 Mg/Dl and 3 Mg/Dl and 2.4 Mg/Dl and 2.3 Mg/Dl and 3.4 Mg/Dl and 3.2 Mg/Dl and 2.7 Mg/Dl and 3.3 Mg/Dl and 4.8 Mg/Dl and 4 Mg/Dl
  Tbil: 0.17 Mg/Dl and 0.1 Mg/Dl and 0.12 Mg/Dl and 0.16 Mg/Dl and 0.45 Mg/Dl and 0.41 Mg/Dl and 0.15 Mg/Dl and 0.14 Mg/Dl and 0.84 Mg/Dl and 0.19 Mg/Dl
  Tco2: 23 Meq/L and 25 Meq/L and 26 Meq/L and 27 Meq/L and 30 Meq/L and 31 Meq/L and 28 Meq/L and 29 Meq/L and 24 Meq/L
  Tibc: 337 µg/dL and 401 µg/dL and 353 µg/dL and 346 µg/dL and 309 µg/dL and 409 µg/dL and 351 µg/dL and 396 µg/dL and 388 µg/dL and 371 µg/dL and 299 µg/dL and 267 µg/dL and 357 µg/dL and 410 µg/dL and 392 µg/dL and 358 µg/dL and 376 µg/dL and 424 µg/dL and 347 µg/dL and 320 µg/dL
  Tp: 6.5 G/Dl and 6.7 G/Dl and 6.4 G/Dl and 6.8 G/Dl and 6.3 G/Dl and 6.9 G/Dl and 6.6 G/Dl and 6 G/Dl and 6.1 G/Dl and 6.2 G/Dl
  Trig: 66 Mg/Dl and 105 Mg/Dl and 88 Mg/Dl and 84 Mg/Dl and 101 Mg/Dl and 120 Mg/Dl and 124 Mg/Dl and 77 Mg/Dl and 61 Mg/Dl and 137 Mg/Dl and 20 Mg/Dl and 24 Mg/Dl and 50 Mg/Dl and 111 Mg/Dl and 31 Mg/Dl and 141 Mg/Dl and 27 Mg/Dl
[3]
  Agap: 15.1667 Meq/L
  Alb: 3.839 G/Dl
  Alp: 98.7222 Iu/L
  Alt: 44.8889 Iu/L
  Ast: 27.4444 Iu/L
  Bun: 14.2778 Mg/Dl
  Ca: 9.439 Mg/Dl
  Chol: 138.5 mg/dL
  Ck: 456.778 Iu/L
  Cl: 110.167 Meq/L
  Crea: 0.7289 Mg/Dl
  Fe: 141.278 µg/dL
  Ggt: 49.6667 Iu/L
  Glob: 3.072 G/Dl
  Gluc: 63.0556 Mg/Dl
  K: 3.633 Meq/L
  Ldh: 249.389 Iu/L
  Na: 148.5 Meq/L
  Osmo: 284.778 Mosm/Kg
  Phos: 2.8 Mg/Dl
  Tbil: 0.1683 Mg/Dl
  Tco2: 26.8889 Meq/L
  Tibc: 368.167 µg/dL
  Tp: 6.906 G/Dl
  Trig: 81.6111 Mg/Dl
[4]
  Agap: 16 Meq/L and 17 Meq/L and 13 Meq/L and 15 Meq/L and 14 Meq/L
  Alb: 3.9 G/Dl and 3.6 G/Dl and 3.8 G/Dl and 3.4 G/Dl and 3.5 G/Dl and 4.3 G/Dl and 4.1 G/Dl and 3.7 G/Dl and 4 G/Dl
  Alp: 114 Iu/L and 109 Iu/L and 79 Iu/L and 146 Iu/L and 91 Iu/L and 93 Iu/L and 84 Iu/L and 108 Iu/L and 131 Iu/L and 72 Iu/L and 88 Iu/L and 136 Iu/L and 116 Iu/L and 65 Iu/L and 75 Iu/L and 90 Iu/L
  Alt: 46 Iu/L and 63 Iu/L and 42 Iu/L and 89 Iu/L and 50 Iu/L and 33 Iu/L and 67 Iu/L and 24 Iu/L and 27 Iu/L and 69 Iu/L and 29 Iu/L and 22 Iu/L and 35 Iu/L and 40 Iu/L and 55 Iu/L and 44 Iu/L and 56 Iu/L
  Ast: 40 Iu/L and 24 Iu/L and 28 Iu/L and 29 Iu/L and 25 Iu/L and 26 Iu/L and 33 Iu/L and 34 Iu/L and 20 Iu/L and 27 Iu/L and 15 Iu/L and 30 Iu/L and 23 Iu/L
  Bun: 15 Mg/Dl and 16 Mg/Dl and 13 Mg/Dl and 12 Mg/Dl and 14 Mg/Dl and 11 Mg/Dl and 20 Mg/Dl
  Ca: 9.7 Mg/Dl and 9.6 Mg/Dl and 9.1 Mg/Dl and 9.3 Mg/Dl and 9 Mg/Dl and 9.2 Mg/Dl and 10 Mg/Dl and 9.8 Mg/Dl and 9.5 Mg/Dl
  Chol: 180 mg/dL and 175 mg/dL and 134 mg/dL and 115 mg/dL and 124 mg/dL and 127 mg/dL and 158 mg/dL and 141 mg/dL and 125 mg/dL and 122 mg/dL and 138 mg/dL and 154 mg/dL and 140 mg/dL and 113 mg/dL and 133 mg/dL and 148 mg/dL and 151 mg/dL and 119 mg/dL
  Ck: 427 Iu/L and 338 Iu/L and 199 Iu/L and 479 Iu/L and 314 Iu/L and 233 Iu/L and 738 Iu/L and 1619 Iu/L and 353 Iu/L and 416 Iu/L and 382 Iu/L and 210 Iu/L and 648 Iu/L and 548 Iu/L and 237 Iu/L and 332 Iu/L and 197 Iu/L and 552 Iu/L and 206 Iu/L
  Cl: 110 Meq/L and 109 Meq/L and 111 Meq/L and 108 Meq/L and 107 Meq/L and 113 Meq/L and 112 Meq/L
  Crea: 0.56 Mg/Dl and 0.91 Mg/Dl and 0.71 Mg/Dl and 0.69 Mg/Dl and 0.85 Mg/Dl and 0.97 Mg/Dl and 0.62 Mg/Dl and 0.77 Mg/Dl and 0.78 Mg/Dl and 0.74 Mg/Dl and 0.76 Mg/Dl and 0.58 Mg/Dl and 0.65 Mg/Dl and 0.64 Mg/Dl and 0.68 Mg/Dl
  Fe: 185 µg/dL and 145 µg/dL and 129 µg/dL and 168 µg/dL and 126 µg/dL and 124 µg/dL and 150 µg/dL and 181 µg/dL and 159 µg/dL and 113 µg/dL and 170 µg/dL and 84 µg/dL and 111 µg/dL and 169 µg/dL and 125 µg/dL and 154 µg/dL and 155 µg/dL
  Ggt: 46 Iu/L and 64 Iu/L and 42 Iu/L and 53 Iu/L and 58 Iu/L and 67 Iu/L and 48 Iu/L and 30 Iu/L and 52 Iu/L and 31 Iu/L and 40 Iu/L and 35 Iu/L and 82 Iu/L and 37 Iu/L and 50 Iu/L and 65 Iu/L
  Glob: 3.3 G/Dl and 3.1 G/Dl and 2.8 G/Dl and 3.4 G/Dl and 2.9 G/Dl and 4.1 G/Dl and 3.8 G/Dl and 2.7 G/Dl and 2.5 G/Dl and 3 G/Dl and 3.5 G/Dl and 3.2 G/Dl
